Assay results reported in patent US10639380B2, “Flavivirus-binding, entry-obstructing, protease-resistant peptide (RI57)” (priority 2016, dated 2020).
Read-outs that look alike come from different tables or passages of the source. Square brackets hold non-standard residues; d marks the D form. Peptide text beside a SMILES is read from it.

Tests used:
[1] = 1:2 dilution of NHS, 37° C., 24 h
Procedure: Lane 1 contains peptide alone/time=0; lane 2, peptide at 37° C./time=24 h; lane 3, peptide in a 1:2 dilution of NHS/time=0; lane 4, peptide in a 1:2 dilution of NHS @ 37° C./time=24 h; and lane 5, a 1:2 dilution of NHS with no peptide at 37° C./time=24 h.

DENV2 [2] = assay: qRT-PCR virus-binding assay; type: cell-based, dengue virus
Procedure: Further to characterize DENV binding to host cells, experiments were conducted to analyze the first step in the process of infection. Infection of LLC-MK2 target cells in six-well plates was executed in duplicate using 10^5 FFU of DENV2 pre-incubated 45 min at 4° C. with either DN57, or RI57 peptide, or pooled heterotypic anti-DENV human serum. Following said 45 min exposure at 4° C., infected monolayers were washed with PBS and harvested by cell scraping, added to a 1.5 ml microfuge tube containing 350 μl AR-200 silicone oil (Sigma-Aldrich, St. Louis, Mo.), mixed with 150 μl silicone fluid (Thomas, Swedesboro, N.J.), and microfuge spun 1 min at 14,000 rpm to separate unbound virus from cell-bound virus. The tubes were then submerged in liquid nitrogen for 30 sec to freeze the contents. The cell pellets with (or without) bound virus were recovered by removing the bottoms of the tubes with small wire clippers and placing them in 15 ml conical tubes. By means of the Qiagen Viral RNA Extraction Kit (Qiagen, Chatsworth, Calif.), viral RNA was extracted from cell pellets.
Using the Quantitect SYBR Green RT-PCR kit (Qiagen Inc., Chatsworth, Calif.), qRT-PCR was performed on the extracted RNA. Manufacturer's specifications and amplification protocols were followed utilizing dengue-specific primers: (DenF: 5-[…]-3 and DenR: 5-[…]-3). […] The following amplification protocol was used: 50° C. for 20 min to reverse transcribe the RNA; 95° C. for 15 min to activate the HotStart Taq DNA Polymerase; 45 PCR cycles: 94° C. for 15 sec; 50° C. for 15 sec; 72° C. for 30 sec; and fluorescence data acquisition was the final step. […]
To test whether DN57 and RI57 interfere directly with virus binding to target cells, binding assays were conducted using qRT-PCR to monitor attachment of virus to target cells. […] RNA was then extracted from the cell pellets and amplified with DENV2-specific primers to quantitate the presence of virus. […]

trypsin = conditions: peptide incubated in trypsin at 37° C. before adding STI
Procedure: The image documents 10-20% gradient gels run electrophoretically (e-gel), labeled with Imperial Protein Stain, and photographed. An e-gel was performed for each peptide, stained with Imperial stain, and photographed. The arrow markers show both the identity of the peptide run and its final location after migration. For each peptide assessment, lanes 1 contain peptide alone; lanes 2, peptide plus soybean trypsin inhibitor (STI); and lanes 3, peptide incubated in trypsin at 37° C. before adding STI.

DENV2 [3] = assay: Pre-binding FFU assay (reversibility of peptide binding); type: cell-based, dengue virus
Procedure: Experiments were conducted further to characterize observed inhibitory effects and determine whether these may have been due to unintended interference owing to modifications of target LLC-MK2 cell surfaces. RI57 was incubated with target cells for 1 h at 4° C., the monolayer cells were then rinsed with PBS, and approximately 200 FFU of DENV2 allowed to infect the cells at 4° C. Agarose overlays, incubation, and immunological detection tests were conducted as described above for the focus-forming assay.
In this assay, DN57 or RI57 was added to target cells for 1 h prior to infection with DENV2 to determine whether these peptides inhibit entry through interaction directly with target cells. […] Table 5. (and also FIG. 7) presents results showing that peptide binding can be reversible. (and FIG. 5.). Introducing a step diluting the concentration of peptide 10-fold after incubating/1 h at 20° C. and then infecting immediately thereafter reverses this inhibition. Errors around the means are depicted as ±sd.

DENV2 [4] = assay: Post-binding FFU assay; type: cell-based, dengue virus; conditions: DN57 added after virus bound at 4° C.; data not shown, see Costin, et al., 2010
Procedure: Experiments were conducted further to characterize observed inhibitory effects as to whether these may have been due to interference with interactions occurring pre-binding, versus post-binding, of virions and LLC-MK2 target cells. An estimated 200 FFU of DENV2 were allowed to interact with target cells for 1 h at 4° C., permitting binding while preventing internalization. Unbound virus was washed off with PBS at 4° C., DN57 added, and the cultures incubated at 4° C. for 1 h, again washed in 4° C. PBS, and then warmed to 37° C. Finally, agarose overlays, incubation, and immunological detection assays were performed as described for the focus-forming assay.
Inasmuch as it was determined that inhibition by DN57 occurs at a viral-entry step, whether infection could still be inhibited after virus had bound to the surface of target cells was tested. In these experiments, virus was allowed to bind to cells at 4° C., then treated with increasing concentrations of DN57 before warming the cells to 37° C. providing conditions in favor of viral progression.

DENV2 [5] = assay: LLC-MK2 FFU assay after trypsin exposure of peptide; type: cell-based, dengue virus
Procedure: Table 7. […] The peptides were exposed to trypsin for ten minutes at 37° C. before STI was added and further incubated ten minutes. The resulting peptide, in each case, was incubated with DENV2 for 1 hour at 20° C. and then this preparation used to infect confluent LLC-MK2 monolayers.

DENV2 [6] = assay: Post-entry FFU assay; type: cell-based, dengue virus; conditions: any DN57 concentration; data not shown, see Costin, et al., 2010
Procedure: Experiments were conducted further to characterize observed inhibitory effects to determine whether they actually may have been due to interference with post-entry steps in the viral life cycle. To this end, approximately 200 FFU of DENV2 (without DN57) were allowed the opportunity to bind and then enter target LLC-MK2 cells for 1 h at 37° C. as described for the focus-forming assay. Any unbound virus was then removed by rinsing with PBS. Next, DN57 was added to the cells post-entry for 1 h at 37° C. Cultures again were washed with PBS and agarose overlays, incubation, and immunological detection assessments were performed as described for the focus-forming assay.

in vitro = conditions: rhesus monkey, LLC-MK2 cells (confluent monolayers)
Procedure: Possible direct cytotoxicity caused by peptide exposure to proliferating LLC-MK2 monolayers was measured using the TACS™ MTT cell proliferation assay (R&D Systems, Inc., Minneapolis, Minn.) according to the manufacturer's instructions. The MTT assay detects and measures mitochondrial reductase activity observable in viable cells. […] A Tecan GeniosPro plate reader (Tecan US, Durham, N.C.) was used to measure absorbance at 560 nm.
Error bars show ±standard deviations (±sd) of the means with an asterisk indicating instances of statistically-significant differences from control according to Dunnett's post hoc test (p<0.05).

DENV2 [7] = system: DENV2
Procedure: (§1) Twenty-four hours prior to infection, LLC-MK2 target cells were seeded at a density of 1.0×10^5 cells per well of an E-well plate. Approximately 200 FFU of virus were incubated with or without peptides in serum-free DMEM for 1 h at 20° C. Virus/peptide or virus/control mixtures were allowed to infect confluent target cell monolayers for 1 h at 37° C., rocking every 15 min, after which time the medium was aspirated and monolayers overlaid with fresh DMEM plus v/v 10% FBS containing v/v 0.85% Sea-Plaque Agarose (Cambrex Bio Science, Rockland, Me.). To allow proper setting, monolayers with agar overlays were incubated 20 min at 4° C. Next, infected cells were incubated at 37° C. with 5% CO2 for three days (DENV1, -3, and -4) or five days (DENV2). Then, infected cultures were fixed with 10% formalin overnight at 4° C., permeabilized with v/v 70% ethanol for 20 min, and rinsed with phosphate-buffered saline, pH 7.4 (PBS) prior to immunostaining. Viral foci were detected and enumerated using supernatant from mouse anti-DENV hybridoma E60 (obtained from the Department of Pathology & Immunology, Washington University, St. Louis, Mo.) followed by horseradish peroxidase-conjugated goat anti-mouse immunoglobulin (Pierce, Rockford, Ill.) and developed using AEC chromogen substrate (Dako, Carpinteria, Calif.). Results have been expressed as an average of two independent trials (at least) with three replicates each.

DENV2 [8] = conditions: as previously observed; cited from earlier work

Procedure for DENV1: as §1
Procedure for DENV3: as §1
Procedure for DENV4: as §1

CSCC[C@H](NC(=O)[C@H](Cc1c[nH]c2ccccc12)NC(=O)[C@@H](N)CCCNC(=N)N)C(=O)N[C@H](C(=O)N[C@@H](Cc1c[nH]c2ccccc12)C(=O)N[C@@H](CCCNC(=N)N)C(=O)N[C@@H](Cc1c[nH]cn1)C(=O)N[C@@H](Cc1c[nH]c2ccccc12)C(=O)N[C@@H](Cc1ccccc1)C(=O)N[C@@H](Cc1c[nH]cn1)C(=O)N[C@@H](CCCNC(=N)N)C(=O)N[C@@H](CC(C)C)C(=O)N[C@@H](CCCNC(=N)N)C(=O)N[C@@H](CC(C)C)C(=O)N1CCC[C@H]1C(=O)N[C@@H](Cc1ccc(O)cc1)C(=O)N[C@@H](CC(N)=O)C(=O)N1CCC[C@H]1C(=O)NCC(=O)N[C@@H](CCCCN)C(=O)N[C@@H](CC(N)=O)C(=O)N[C@@H](CCCCN)C(=O)N[C@@H](CCC(N)=O)C(=O)N[C@@H](CC(N)=O)C(=O)N[C@@H](CCC(N)=O)C(=O)N[C@@H](CCC(N)=O)C(=O)N[C@@H](Cc1c[nH]c2ccccc12)C(=O)N1CCC[C@H]1C(=O)O)C(C)C [DN57, reference compound] (H-RWMVWRHWFHRLRLPYNPGKNKQNQQWP-OH; N-terminus and C-terminus assumed)
degradation in normal human serum (e-gel) [1]: absent
% Infection Inhibition (DENV2 [2]; DENV2 + 20 uM peptide): 96.4%
% Infection Inhibition (DENV2 [2]; DENV2 + 20 uM peptide + Trypsin + STI): 5.2%
binding of virus to cells (DENV2 [2]; virus co-incubated with peptide 45 min at 4° C.): inhibit binding of virus to cells
trypsin cleavage (e-gel) (trypsin): degraded
% DENV2 Infection Inhibition (DENV2 [3]; PBS Rinse (text: peptide diluted 10-fold after incubation, then infecting)): −2.8%
% DENV2 Infection Inhibition (DENV2 [3]; incubation with 10 μM/1 h at 20° C., no rinse): 83.1%
inhibition on treatment of target cells with peptide prior to DENV2 infection (DENV2 [3]; peptide added to target cells for 1 h prior to infection): no evidence of inhibition
DENV-2 infection after virus binding to cells, before entry (DENV2 [4]): inhibits DENV-2 infection
% Infection Inhibition (DENV2 [5]; DENV2 + 20 uM peptide): 96.4%
% Infection Inhibition (DENV2 [5]; DENV2 + 20 uM peptide + Trypsin + STI (trypsin ten minutes at 37° C.)): 5.2%
DENV2 inhibitory activity after trypsin exposure (DENV2 [5]; trypsin ten minutes at 37° C. before STI): did not
viral replication when peptide added post-entry (DENV2 [6]): no inhibition of viral replication was observed
viability at 24 h, 0.1 µM (in vitro): 100%
viability at 24 h, 0.5 µM (in vitro): 98.6%
viability at 24 h, 1 µM (in vitro): 100%
viability at 24 h, 5 µM (in vitro): 97.8%
viability at 24 h, 10 µM (in vitro): 95.9%
viability at 24 h, 15 µM (in vitro): 92.8%
viability at 24 h, 20 µM (in vitro): 76.4%
viability at 24 h, 25 µM (in vitro): 80.2%
viability at 24 h, 30 µM (in vitro): 54.7%
viability at 24 h, 35 µM (in vitro): 55.1%
viability at 24 h, 40 µM (in vitro): 50.6%

CSCC[C@@H](NC(=O)[C@H](NC(=O)[C@@H](Cc1c[nH]c2ccccc12)NC(=O)[C@@H](CCCNC(=N)N)NC(=O)[C@@H](Cc1c[nH]cn1)NC(=O)[C@@H](Cc1c[nH]c2ccccc12)NC(=O)[C@@H](Cc1ccccc1)NC(=O)[C@@H](Cc1c[nH]cn1)NC(=O)[C@@H](CCCNC(=N)N)NC(=O)[C@@H](CC(C)C)NC(=O)[C@@H](CCCNC(=N)N)NC(=O)[C@@H](CC(C)C)NC(=O)[C@H]1CCCN1C(=O)[C@@H](Cc1ccc(O)cc1)NC(=O)[C@@H](CC(N)=O)NC(=O)[C@H]1CCCN1C(=O)CNC(=O)[C@@H](CCCCN)NC(=O)[C@@H](CC(N)=O)NC(=O)[C@@H](CCCCN)NC(=O)[C@@H](CCC(N)=O)NC(=O)[C@@H](CC(N)=O)NC(=O)[C@@H](CCC(N)=O)NC(=O)[C@@H](CCC(N)=O)NC(=O)[C@@H](Cc1c[nH]c2ccccc12)NC(=O)[C@H]1CCCN1)C(C)C)C(=O)N[C@H](Cc1c[nH]c2ccccc12)C(=O)N[C@H](CCCNC(=N)N)C(=O)O [RI57] (H-[dP][dW][dQ][dQ][dN][dQ][dK][dN][dK]G[dP][dN][dY][dP][dL][dR][dL][dR][dH][dF][dW][dH][dR][dW][dV][dM][dW][dR]-OH; N-terminus and C-terminus assumed)
degradation in normal human serum (e-gel) [1]: remains completely intact
trypsin cleavage (e-gel) (trypsin): resistant to trypsin cleavage
% Inhibition DENV1 (DENV1; 0.1 uM peptide): 2.4%
% Inhibition DENV1 (DENV1; 0.5 uM peptide): 16.2%
% Inhibition DENV1 (DENV1; 1.0 uM peptide): −43.6%
% Inhibition DENV1 (DENV1; 5.0 uM peptide): 63.8%
% Inhibition DENV1 (DENV1; 10.0 uM peptide): 97.3%
% Inhibition DENV1 (DENV1; 20.0 uM peptide): 100.0%
IC50 (DENV1; DENV1, sigmoidal curve-fitting to dose-response curve): 4.6 µM
% Inhibition DENV4 (DENV4; 0.1 uM peptide): 18.9%
% Inhibition DENV4 (DENV4; 0.5 uM peptide): −0.7%
% Inhibition DENV4 (DENV4; 1.0 uM peptide): −11.8%
% Inhibition DENV4 (DENV4; 5.0 uM peptide): −41.8%
% Inhibition DENV4 (DENV4; 10.0 uM peptide): 55.5%
% Inhibition DENV4 (DENV4; 20.0 uM peptide): 94.4%
% Inhibition DENV2 (DENV2 [7]; 0.1 uM peptide): 6.2%
% Inhibition DENV2 (DENV2 [7]; 0.5 uM peptide): −1.7%
% Inhibition DENV2 (DENV2 [7]; 1.0 uM peptide): −5.9%
% Inhibition DENV2 (DENV2 [7]; 5.0 uM peptide): 4.3%
% Inhibition DENV2 (DENV2 [7]; 10.0 uM peptide): 69.8%
% Inhibition DENV2 (DENV2 [7]; 20.0 uM peptide): 97.8%
IC50 (DENV2 [7]; DENV2, sigmoidal curve-fitting to dose-response curve): 7.4 µM
% Inhibition DENV3 (DENV3; 0.1 uM peptide): 15.1%
% Inhibition DENV3 (DENV3; 0.5 uM peptide): 3.3%
% Inhibition DENV3 (DENV3; 1.0 uM peptide): −73.1%
% Inhibition DENV3 (DENV3; 5.0 uM peptide): −9.7%
% Inhibition DENV3 (DENV3; 10.0 uM peptide): 63.3%
% Inhibition DENV3 (DENV3; 20.0 uM peptide): 90.1%
IC50 (DENV3; DENV3, sigmoidal curve-fitting to dose-response curve): 5.9 µM
viability at 24 h, 0.1 µM (in vitro): 95.9%
viability at 24 h, 0.5 µM (in vitro): 96.5%
viability at 24 h, 1 µM (in vitro): 95%
viability at 24 h, 5 µM (in vitro): 95.9%
viability at 24 h, 10 µM (in vitro): 95.3%
viability at 24 h, 15 µM (in vitro): 100%
viability at 24 h, 20 µM (in vitro): 101%
viability at 24 h, 25 µM (in vitro): 101%
viability at 24 h, 30 µM (in vitro): 104%
viability at 24 h, 35 µM (in vitro): 94.3%
viability at 24 h, 40 µM (in vitro): 92%

heparin sulfate
binding of dengue virus to cells (control) (DENV2 [8]): dramatically reduces binding of dengue virus to cells
